# Laboratory results: patent publication US11168073B2, “3,3-difluoroallylamines or salts thereof and pharmaceutical compositions comprising the same” (YUHAN CORPORATION, priority 2018, dated 2021)
# Counter-ions that a name gives are not always drawn. Like-named read-outs stand apart in the source and are kept apart here.
# Tests used:
# Format in all cases: biochemical
# recombinant human VAP-1 = target: T1, recombinant human VAP-1 (Homo sapiens, UniProt Q16853); test: Activity evaluation on recombinant human VAP-1 (Amplex Red/HRP-coupled hydrogen peroxide assay, benzylamine substrate); conditions: read-out: Inhibitory Activity (IC50, nM) human VAP-1
# T1 construct: purchased R&D systems
# T1 sequence (Q16853 1-763): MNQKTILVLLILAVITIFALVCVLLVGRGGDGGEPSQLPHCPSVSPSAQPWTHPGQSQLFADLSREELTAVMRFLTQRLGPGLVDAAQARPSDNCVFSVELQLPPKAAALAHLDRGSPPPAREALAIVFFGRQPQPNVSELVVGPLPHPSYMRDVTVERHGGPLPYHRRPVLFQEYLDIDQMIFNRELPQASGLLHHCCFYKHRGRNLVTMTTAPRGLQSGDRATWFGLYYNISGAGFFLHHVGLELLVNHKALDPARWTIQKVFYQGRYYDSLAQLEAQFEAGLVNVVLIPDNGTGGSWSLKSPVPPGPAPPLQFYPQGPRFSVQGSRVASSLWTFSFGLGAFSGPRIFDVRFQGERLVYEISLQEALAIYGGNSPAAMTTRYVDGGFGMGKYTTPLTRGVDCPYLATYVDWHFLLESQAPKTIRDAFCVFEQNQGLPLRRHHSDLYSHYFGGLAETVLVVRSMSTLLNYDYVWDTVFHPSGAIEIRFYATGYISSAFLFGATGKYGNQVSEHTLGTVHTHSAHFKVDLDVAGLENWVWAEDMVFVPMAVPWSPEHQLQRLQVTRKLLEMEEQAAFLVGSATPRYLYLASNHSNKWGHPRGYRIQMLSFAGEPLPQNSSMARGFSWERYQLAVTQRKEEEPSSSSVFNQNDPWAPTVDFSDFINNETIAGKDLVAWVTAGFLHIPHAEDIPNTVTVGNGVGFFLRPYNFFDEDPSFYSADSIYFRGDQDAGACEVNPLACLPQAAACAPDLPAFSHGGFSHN
# Outline: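 Hydrogen peroxide from benzylamine (1 mM) oxidation by human recombinant VAP-1 detected via HRP-coupled Amplex Red (200 uM) fluorescence, kinetic over 1–2 h. Enzyme and compound preincubated 30 min at 37 °C, pH 7.4 phosphate; 8-point dose response, signal-rate decrease versus DMSO control fitted to four-parameter logistic for IC50.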
# [1] = target: T2, recombinant human MAO-A (monoamine oxidase-A) (Homo sapiens, UniProt P21397); test: Activity evaluation on recombinant human MAO-A (Amplex Red/HRP-coupled assay, 0.5 mM tyramine substrate); conditions: read-out: Inhibitory Activity (IC50, nM) MAO-A
# T2 construct: purchased Sigma-Aldrich
# T2 sequence (P21397 1-527): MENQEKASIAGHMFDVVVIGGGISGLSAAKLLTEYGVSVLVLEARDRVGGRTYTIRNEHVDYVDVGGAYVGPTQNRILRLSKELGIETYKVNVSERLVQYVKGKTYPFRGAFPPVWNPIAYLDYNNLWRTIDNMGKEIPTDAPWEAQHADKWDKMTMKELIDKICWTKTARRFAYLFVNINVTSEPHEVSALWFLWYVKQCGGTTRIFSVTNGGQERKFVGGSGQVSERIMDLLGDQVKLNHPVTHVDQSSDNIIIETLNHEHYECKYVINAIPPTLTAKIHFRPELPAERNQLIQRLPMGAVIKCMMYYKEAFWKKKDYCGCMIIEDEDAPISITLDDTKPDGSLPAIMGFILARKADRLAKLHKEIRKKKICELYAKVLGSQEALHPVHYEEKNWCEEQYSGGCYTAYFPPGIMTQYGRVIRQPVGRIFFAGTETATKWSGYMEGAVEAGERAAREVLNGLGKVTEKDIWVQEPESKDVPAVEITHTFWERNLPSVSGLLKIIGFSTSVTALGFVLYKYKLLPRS
# Outline: (§1)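 Each oxidase is tested with its own substrate: MAO-A with 0.5 mM tyramine, MAO-B with 1 mM benzylamine, DAO with 1 mM putrescine. After 30 min enzyme-compound preincubation at 37 °C, Amplex Red (200 uM) plus HRP (1 U/mL) reports H2O2 as fluorescence; IC50 is fitted from eight-point curves.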
# [2] = target: T3, recombinant human MAO-B (monoamine oxidase-B) (Homo sapiens, UniProt P27338); test: Activity evaluation on recombinant human MAO-B (Amplex Red/HRP-coupled assay, 1 mM benzylamine substrate); conditions: read-out: Inhibitory Activity (IC50, nM) MAO-B
# T3 construct: purchased Sigma-Aldrich
# T3 sequence (P27338 1-520): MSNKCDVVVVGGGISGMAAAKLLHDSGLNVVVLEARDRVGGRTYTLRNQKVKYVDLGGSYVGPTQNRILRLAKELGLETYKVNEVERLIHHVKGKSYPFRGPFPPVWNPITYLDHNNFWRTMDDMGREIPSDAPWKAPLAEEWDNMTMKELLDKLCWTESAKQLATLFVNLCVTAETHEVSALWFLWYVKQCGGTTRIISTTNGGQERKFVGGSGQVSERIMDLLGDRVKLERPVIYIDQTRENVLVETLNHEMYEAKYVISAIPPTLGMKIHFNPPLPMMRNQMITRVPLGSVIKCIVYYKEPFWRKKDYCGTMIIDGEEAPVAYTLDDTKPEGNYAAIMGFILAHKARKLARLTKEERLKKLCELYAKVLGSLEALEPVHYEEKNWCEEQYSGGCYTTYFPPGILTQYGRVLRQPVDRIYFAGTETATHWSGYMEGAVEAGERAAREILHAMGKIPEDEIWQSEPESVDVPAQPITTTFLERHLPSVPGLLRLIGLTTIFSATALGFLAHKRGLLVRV
# Outline: as §1
# [3] = target: T4, recombinant human DAO (diamine oxidase) (Homo sapiens, UniProt P19801); test: Activity evaluation on recombinant human DAO (Amplex Red/HRP-coupled assay, 1 mM putrescine substrate); conditions: read-out: Inhibitory Activity (IC50, nM) DAO
# T4 construct: purchased R&D systems
# T4 sequence (P19801 20-751): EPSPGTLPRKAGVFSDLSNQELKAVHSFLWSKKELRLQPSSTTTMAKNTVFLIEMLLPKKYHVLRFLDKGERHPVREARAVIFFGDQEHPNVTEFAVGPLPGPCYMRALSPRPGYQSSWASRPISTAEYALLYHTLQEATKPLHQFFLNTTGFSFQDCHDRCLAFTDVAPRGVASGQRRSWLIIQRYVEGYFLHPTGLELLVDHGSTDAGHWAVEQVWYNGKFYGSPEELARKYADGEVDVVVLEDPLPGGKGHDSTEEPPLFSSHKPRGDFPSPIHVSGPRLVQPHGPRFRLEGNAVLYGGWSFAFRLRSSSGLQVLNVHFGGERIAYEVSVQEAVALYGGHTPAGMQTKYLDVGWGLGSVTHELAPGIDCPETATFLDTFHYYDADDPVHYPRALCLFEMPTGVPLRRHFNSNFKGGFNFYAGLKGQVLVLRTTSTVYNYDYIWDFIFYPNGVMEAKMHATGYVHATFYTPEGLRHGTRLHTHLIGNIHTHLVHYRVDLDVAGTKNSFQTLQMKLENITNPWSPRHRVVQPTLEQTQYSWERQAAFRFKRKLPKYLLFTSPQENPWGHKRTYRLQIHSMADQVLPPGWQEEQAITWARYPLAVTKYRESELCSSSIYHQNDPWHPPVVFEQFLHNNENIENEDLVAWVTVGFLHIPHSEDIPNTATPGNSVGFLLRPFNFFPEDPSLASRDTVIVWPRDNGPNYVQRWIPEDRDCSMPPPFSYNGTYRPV
# Outline: as §1
# [4] = recombinant human VAP-1, benzylamine substrate
# [5] = recombinant human VAP-1, 30 min preincubation at 37° C., 1 mM benzylamine
Compound,IC50 (recombinant human VAP-1; [4]) [nM],IC50 ([1]; 0.5 mM tyramine substrate) [nM],IC50 ([2]; 1 mM benzylamine substrate) [nM],IC50 ([3]; 1 mM putrescine substrate) [nM],IC50 (recombinant human VAP-1; [5]) [nM],IC50 ([1]; 0.5 mM tyramine) [nM],IC50 ([2]; 1 mM benzylamine) [nM],IC50 ([3]; 1 mM putrescine) [nM]
"NCC(Cn1ncn(Cc2cc3ccc(-c4ccc5c(c4)OCO5)cc3s2)c1=O)=C(F)F [Example 201, 2-[2-(aminomethyl)-3,3-difluoro-allyl]-4-[[6-(1,3-benzodioxol-5-yl)benzothiophen-2-yl]methyl]-1,2,4-triazol-3-one Trifluoroacetate]",2.8,90800,2000,27000,–,–,–,–
"CS(=O)(=O)c1ccc(-c2ccc(-n3cnn(CC(CN)=C(F)F)c3=O)cc2F)cc1 [Example 24, 2-[2-(aminomethyl)-3,3-difluoro-allyl]-4-[3-fluoro-4-(4-methylsulfonylphenyl)phenyl]-1,2,4-triazol-3-one Trifluoroacetate]",–,–,–,–,2.7,> 100000,3300,600
"CN(C)c1ccc(-c2ccc(-n3cnn(CC(CN)=C(F)F)c3=O)c(F)c2)cn1 [Example 34, 2-[2-(aminomethyl)-3,3-difluoro-allyl]-4-[4-[6-(dimethylamino)-3-pyridyl]-2-fluoro-phenyl]-1,2,4-triazol-3-one Trifluoroacetate]",–,–,–,–,0.3,27000,770,250
"Cc1cc(-c2cccc(S(C)(=O)=O)c2)cnc1-n1cnn(CC(CN)=C(F)F)c1=O [Example 234, 2-[2-(aminomethyl)-3,3-difluoro-allyl]-4-[3-methyl-5-(3-methylsulfonylphenyl)-2-pyridyl]-1,2,4-triazol-3-one Trifluoroacetate]",0.4,> 100000,1800,7500,–,–,–,–
"NCC(Cn1ncn(-c2ccc(-c3ccc4c(c3)OCO4)c(F)c2)c1=O)=C(F)F [Example 28, 2-[2-(aminomethyl)-3,3-difluoro-allyl]-4-[4-(1,3-benzodioxol-5-yl)-3-fluoro-phenyl]-1,2,4-triazol-3-one Trifluoroacetate]",–,–,–,–,1.2,> 100000,85,1600

# Further lines, results first:
IC50 (recombinant human VAP-1; [4]) [nM],IC50 ([1]; 0.5 mM tyramine substrate) [nM],IC50 ([2]; 1 mM benzylamine substrate) [nM],IC50 ([3]; 1 mM putrescine substrate) [nM],IC50 (recombinant human VAP-1; [5]) [nM],IC50 ([1]; 0.5 mM tyramine) [nM],IC50 ([2]; 1 mM benzylamine) [nM],IC50 ([3]; 1 mM putrescine) [nM],Compound
–,–,–,–,4.9,> 100000,> 100000,970,"NCC(Cn1ncn(Cc2ccc(-c3ccc(N4CCNCC4)nc3)s2)c1=O)=C(F)F [Example 114, 2-[2-(aminomethyl)-3,3-difluoro-allyl]-4-[[5-(6-piperazin-1-yl-3-pyridyl)-2-thienyl]methyl]-1,2,4-triazol-3-one Ditrifluoroacetate]"
–,–,–,–,56,> 100000,> 100000,50000,"Cc1cc(-c2ccc(N3CCNCC3)cc2)sc1Cn1cnn(CC(CN)=C(F)F)c1=O [Example 155, 2-[2-(aminomethyl)-3,3-difluoro-allyl]-4-[[3-methyl-5-(4-piperazin-1-ylphenyl)-2-thienyl]methyl]-1,2,4-triazol-3-one Ditrifluoroacetate]"
–,–,–,–,1.1,> 100000,> 100000,7100,"CCOc1ncc(-c2ccc(Cn3cnn(CC(CN)=C(F)F)c3=O)s2)cn1 [Example 117, 2-[2-(aminomethyl)-3,3-difluoro-allyl]-4-[[5-(2-ethoxypyrimidin-5-yl)-2-thienyl]methyl]-1,2,4-triazol-3-one Trifluoroacetate]"
1.3,> 100000,> 100000,> 100000,–,–,–,–,"CCn1cc(-c2ccc(Cn3cnn(CC(CN)=C(F)F)c3=O)cc2)cn1 [Example 264, 2-[2-(aminomethyl)-3,3-difluoro-allyl]-4-[[4-(1-ethylpyrazol-4-yl)phenyl]methyl]-1,2,4-triazol-3-one Trifluoroacetate]"
–,–,–,–,0.6,> 100000,2700,19000,"COc1ccc(-c2ccc(Cn3cnn(CC(CN)=C(F)F)c3=O)s2)cn1 [Example 113, 2-[2-(aminomethyl)-3,3-difluoro-allyl]-4-[[5-(6-methoxy-3-pyridyl)-2-thienyl]methyl]-1,2,4-triazol-3-one Trifluoroacetate]"
